For orientation: GI50 means the concentration giving 50% growth inhibition.

We go through 12 compounds from ChEMBL document CHEMBL1201862, “PubChem BioAssay data set” (2004).

Among the test systems are BT-549; HL-60; HOP-62; HT-29; LOX IMVI; MDA-N; NCI-H226; OVCAR-3; OVCAR-8; RPMI-8226; RXF 393; SF-539; SK-MEL-28; SN12C; TK-10; UACC-257; MCF7; SK-OV-3; IGROV-1.
Test in all cases: DTP human tumour cell line panel, 48 h

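96-well plates; 48 h exposure; 5 concentrations. Endpoints by linear interpolation between flanking doses. Not reached: highest tested concentration assigned. GI50 marks 50% less growth.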 Activity calls are given as the source filed them. No stated cut-off is given here; in the data, active = GI50 up to about 1.1 µM and inactive = higher.

For `CN(C)CCn1c(=O)c2ccc3c4c(nn3CCN(C)C)c3cc(O)ccc3n(c1=O)c24`, the GI50 is 0.879 µM (active) with BT-549; 0.0419 µM (active) with HL-60; < 0.0316 µM (active) in the assay on HOP-62; < 0.01 µM (active) in the assay with HT-29; < 0.0306 µM (active) in the assay on LOX IMVI; 0.181 µM (active) in the assay on MDA-N. The concentration for 50% growth inhibition (GI50) was 0.126 µM (active) with NCI-H226; 0.114 µM (active) with OVCAR-3; < 0.01 µM (active) in the assay on OVCAR-8; 0.0541 µM (active) in the assay with RPMI-8226; 0.281 µM (active) with RXF 393; 1.29 µM (inactive) in the assay with SF-539. The GI50 was 0.548 µM (active) in the assay with SK-MEL-28, 0.0148 µM (active) with SN12C, 0.117 µM (active) in the assay on TK-10 and 0.308 µM (active) in the assay with UACC-257.
On to `Cc1ccc(N/C(SCc2ccccc2)=C(\C(Cl)=C(Cl)Cl)[N+](=O)[O-])c(C)c1`, for which the GI50 in the assay on BT-549 is 19.2 µM (inactive); in the assay on HOP-62, 8.13 µM (inactive); in the assay on HT-29, 29.8 µM (inactive); in the assay with MCF7, 35.3 µM (inactive); in the assay with MDA-N, 22.2 µM (inactive); in the assay on NCI-H226 it was 45.2 µM (inactive). Moreover, the GI50 was 8.26 µM (inactive) in the assay with OVCAR-3; 18.5 µM (inactive) in the assay with OVCAR-8; 21.1 µM (inactive) with RPMI-8226; 19.9 µM (inactive) with SF-539; 23.8 µM (inactive) with SK-MEL-28; 39.8 µM (inactive) with SK-OV-3. Further, the values for the GI50 in the assay on SN12C and with UACC-257 were 20.4 µM (inactive) and 43.9 µM (inactive), respectively.
For `O=C1NCc2ccccc2S(=O)(=O)n2cccc21`, the GI50 with BT-549, in the assay with HL-60, in the assay with HOP-62, in the assay on HT-29, in the assay on IGROV-1 and with LOX IMVI was > 100 µM (inactive) throughout. The GI50 with MCF7, with MDA-N, in the assay with NCI-H226, in the assay on OVCAR-3, in the assay on OVCAR-8 and with RPMI-8226 was > 100 µM (inactive) in each case. The GI50 in the assay on SF-539, in the assay with SK-MEL-28, with SK-OV-3, in the assay with SN12C, in the assay with TK-10 and with UACC-257 was > 100 µM (inactive) throughout.
As to `O=S(=O)(c1ccc(Br)cc1)n1c2ccc(Br)cc2c2nc3ccccc3nc21`, the GI50 is > 100 µM (inactive) in the assay on BT-549; 34.3 µM (inactive) with HOP-62; > 100 µM (inactive) in the assay with HT-29; 78.7 µM (inactive) with IGROV-1; > 100 µM (inactive) in the assay on LOX IMVI; > 100 µM (inactive) in the assay on MDA-N. Further, the GI50 with NCI-H226 was > 100 µM (inactive); in the assay on OVCAR-3, > 100 µM (inactive); in the assay with OVCAR-8, 55.5 µM (inactive); in the assay on RPMI-8226, > 100 µM (inactive); with RXF 393, 20.1 µM (inactive); in the assay on SK-MEL-28, > 100 µM (inactive). Also, the GI50 with SK-OV-3 was 52 µM (inactive); with SN12C, > 100 µM (inactive); in the assay on TK-10 it was 82 µM (inactive); in the assay on UACC-257 it was > 100 µM (inactive).
With `CN(C)CCNC(=O)Cn1cc([N+](=O)[O-])c(=O)c2ccccc21`, the GI50 with BT-549, with HL-60, in the assay on HOP-62, in the assay on HT-29, in the assay with IGROV-1 and in the assay on MCF7 was > 100 µM (inactive) in each case. Further, the GI50 in the assay with MDA-N, with NCI-H226, in the assay on OVCAR-3, in the assay with OVCAR-8, with SF-539 and in the assay with SK-MEL-28 was > 100 µM (inactive) in each case. In addition, the GI50 with SK-OV-3, in the assay on SN12C, in the assay with TK-10 and with UACC-257 was > 100 µM (inactive) in each case.
For the compound `O=C(CSCC(=O)N/N=C/c1cccs1)N/N=C/c1cccs1`, the GI50 in the assay with BT-549 is 43.2 µM (inactive); in the assay with HL-60 it was > 100 µM (inactive); with HOP-62, 46.3 µM (inactive); with HT-29, > 100 µM (inactive); in the assay on IGROV-1 it was 66.7 µM (inactive); in the assay on LOX IMVI, > 100 µM (inactive). Besides, the GI50 in the assay with MCF7 is > 100 µM (inactive); in the assay with NCI-H226, 37.2 µM (inactive); in the assay on OVCAR-3 it was 38.6 µM (inactive); in the assay on OVCAR-8, 37 µM (inactive); in the assay on RPMI-8226 it was 42.4 µM (inactive); in the assay with RXF 393, 74.3 µM (inactive). Further, the GI50 in the assay on SF-539 is 52.8 µM (inactive); with SK-MEL-28 it was > 100 µM (inactive); in the assay on SK-OV-3, > 100 µM (inactive); with SN12C it was > 100 µM (inactive); in the assay with TK-10 it was > 100 µM (inactive); in the assay on UACC-257, > 100 µM (inactive).
As for `CN(C)NC1=NS(=O)(=O)c2cc3c(cc2S1)N(N(C)C)C(=O)c1cc2c(cc1N(N(C)C)C3=O)SC(NN(C)C)=NS2(=O)=O`, the GI50 with BT-549, with HL-60, in the assay on HOP-62, in the assay with HT-29, in the assay on IGROV-1 and in the assay with LOX IMVI was > 10 µM (inactive) in each case. Besides, the GI50 with MCF7, in the assay on NCI-H226, with OVCAR-3, in the assay with OVCAR-8, in the assay on RPMI-8226 and with RXF 393 was > 10 µM (inactive) throughout. Moreover, the GI50 with SF-539, with SK-MEL-28, in the assay on SK-OV-3, in the assay on SN12C, with TK-10 and with UACC-257 was > 10 µM (inactive) throughout.
Turning to `CCN(CCN(CC)C(=O)NC)C(=O)NC`, the GI50 in the assay with BT-549, in the assay on HL-60, with HOP-62, with HT-29, with IGROV-1 and in the assay on LOX IMVI was > 100 µM (inactive) in each case. Further, the GI50 with MCF7, in the assay with MDA-N, in the assay on NCI-H226, in the assay on OVCAR-8, in the assay on RPMI-8226 and in the assay on RXF 393 was > 100 µM (inactive) each time. For the same compound, the GI50 in the assay with SK-MEL-28, in the assay on SK-OV-3, in the assay on SN12C, in the assay on TK-10 and in the assay with UACC-257 was > 100 µM (inactive) in each case.
As for `O=C(NCCCCCCCCCCCCNC(=O)Nc1cccc2ccccc12)Nc1cccc2ccccc12`, the GI50 with BT-549 is 14.4 µM (inactive); in the assay on HL-60, 18.2 µM (inactive); in the assay on HOP-62 it was 6.15 µM (inactive); in the assay on HT-29, 21 µM (inactive); with IGROV-1 it was 18.4 µM (inactive); in the assay on LOX IMVI, 18 µM (inactive). The GI50 with MCF7 was 18.3 µM (inactive); in the assay on MDA-N it was 17.4 µM (inactive); with OVCAR-3 it was 16.7 µM (inactive); in the assay with OVCAR-8, 22.9 µM (inactive); in the assay on RPMI-8226 it was 19.5 µM (inactive); in the assay on RXF 393 it was 15.2 µM (inactive). Moreover, the GI50 with SF-539 is 13.2 µM (inactive); in the assay with SK-MEL-28, 19.5 µM (inactive); in the assay with SN12C, 17.6 µM (inactive); in the assay with TK-10 it was 17.7 µM (inactive); in the assay with UACC-257, > 10 µM (inactive).
Consider `CCCCN1C(=O)C2Cc3c([nH]c4ccccc34)C(c3cccc(O)c3)N2C1=O` (configuration not stated), for which the GI50 in the assay with BT-549 was 19 µM (inactive); with HL-60, 22.8 µM (inactive); in the assay with HOP-62, 18.5 µM (inactive); in the assay on HT-29, 20.9 µM (inactive); in the assay with IGROV-1, 17.5 µM (inactive); in the assay with LOX IMVI, 18 µM (inactive). In addition, the GI50 is 18.3 µM (inactive) in the assay with MCF7; 19.2 µM (inactive) with MDA-N; 21.5 µM (inactive) in the assay with NCI-H226; 16.3 µM (inactive) in the assay on OVCAR-3; 18.9 µM (inactive) in the assay on OVCAR-8; 23.1 µM (inactive) in the assay on RPMI-8226. In addition, the GI50 in the assay on SF-539 is 18.8 µM (inactive); in the assay on SK-MEL-28, 19 µM (inactive); in the assay on SK-OV-3, 16.1 µM (inactive); in the assay with SN12C, 17.9 µM (inactive); with TK-10, 18.3 µM (inactive); with UACC-257, 18.7 µM (inactive).
For the compound `O=C1c2sc(-c3ccc(Cl)cc3)cc2-n2cccc21`, the GI50 in the assay with BT-549, with HOP-62, in the assay with HT-29, in the assay on IGROV-1, in the assay on LOX IMVI and with MCF7 was > 100 µM (inactive) throughout. The GI50 with MDA-N, in the assay on NCI-H226, in the assay on OVCAR-3, in the assay with OVCAR-8, with RPMI-8226 and in the assay on RXF 393 was > 100 µM (inactive) each time. Further, the GI50 in the assay with SK-MEL-28, in the assay with SK-OV-3, in the assay with SN12C, in the assay on TK-10 and in the assay with UACC-257 was > 100 µM (inactive) each time.
On to `Cc1cc(O)nc2c3c(ccc12)OC(C)(C)C=C3`, for which the GI50 in the assay on BT-549 is 36.6 µM (inactive); in the assay with HL-60 it was 0.43 µM (active); with HOP-62, 8.2 µM (inactive); in the assay with HT-29 it was 5.66 µM (inactive); with IGROV-1, 6.44 µM (inactive); with MCF7, 3.48 µM (inactive). Further, the GI50 with MDA-N was 2.08 µM (inactive); in the assay on OVCAR-3 it was 4.28 µM (inactive); in the assay on OVCAR-8, 7.59 µM (inactive); in the assay on RPMI-8226 it was 4.47 µM (inactive); in the assay on RXF 393, 5.25 µM (inactive); in the assay on SF-539, 3.27 µM (inactive). The GI50 in the assay on SK-MEL-28 was > 23.2 µM (inactive); with SK-OV-3, 11.3 µM (inactive); in the assay with SN12C it was 5.98 µM (inactive); in the assay on TK-10, > 100 µM (inactive); in the assay on UACC-257 it was > 25.3 µM (inactive).
